Laboratory results from patent US6175013A, “Imidazolinyl tachykinin receptor antagonists” (Eli Lilly and Company, priority 1994, dated 2001).
pIC50: −log10 of the molar value.

Key:
[1] = biological target: T1, NK-1 receptor (Homo sapiens, UniProt P25103); experiment: NK-1 Receptor Binding Assay (125I-substance P, IM9 cells); conditions: 20 pM 125I-labeled substance P, 45 minutes at 4° C., may be average of more than one experiment, read-out: IC50, inhibition of binding of substance P
T1 construct: an aliquot of IM9 cells; endogenous in cells; host or cells: IM9 cells
T1 sequence (P25103 whole entry): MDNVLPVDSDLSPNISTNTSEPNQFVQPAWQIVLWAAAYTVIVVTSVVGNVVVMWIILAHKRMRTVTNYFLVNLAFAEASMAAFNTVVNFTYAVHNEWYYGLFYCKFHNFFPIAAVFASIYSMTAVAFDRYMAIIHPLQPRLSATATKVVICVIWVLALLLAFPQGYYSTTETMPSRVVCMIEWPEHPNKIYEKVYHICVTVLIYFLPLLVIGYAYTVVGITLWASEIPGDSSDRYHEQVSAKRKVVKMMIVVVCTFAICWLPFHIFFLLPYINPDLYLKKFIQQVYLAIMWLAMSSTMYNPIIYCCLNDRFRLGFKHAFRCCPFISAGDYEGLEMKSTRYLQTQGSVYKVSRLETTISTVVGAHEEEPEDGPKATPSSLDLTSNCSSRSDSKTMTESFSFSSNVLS
Description: (§1) The biological activity of the compounds of the present invention was evaluated employing an initial screening assay which rapidly and accurately measured the binding of the tested compound to known NK-1 and NK-2 receptor sites. Assays useful for evaluating tachykinin receptor antagonists are well known in the art. See, e.g., J. Jukic, et al., Life Sciences, 49:1463-1469 (1991); N. Kucharczyk, et al., Journal of Medicinal Chemistry, 36:1654-1661 (1993); N. Rouissi, et al., Biochemical and Bioohysical Research Communications, 176:894-901 (1991).
NK-1 Receptor Binding Assay
Radioreceptor binding assays were performed using a derivative of a previously published protocol. D. G. Payan, et al., Journal of Immunology, 133:3260-3265 (1984). In this assay an aliquot of IM9 cells (1×10^6 cells/tube in […] medium supplemented with 10% fetal calf serum) was incubated with 20 pM ^125 I-labeled substance P in the presence of increasing competitor concentrations for 45 minutes at 4° C.
The IM9 cell line is a well-characterized cell line which is readily available to the public. See, e.g., Annals of the New York Academy of Science, 190: 221-234 (1972); Nature (London), 251:443-444 (1974); Proceedings of the National Academy of Sciences (USA), 71:84-88 (1974). These cells were routinely cultured in RPMI 1640 supplemented with 50 gg/ml gentamicin sulfate and 10% fetal calf serum.
The reaction was terminated by filtration through a glass fiber filter harvesting system using filters previously soaked for 20 minutes in 0.1% polyethylenimine. Specific binding of labeled substance P was determined in the presence of 20 nM unlabeled ligand.
Column 1 provides the example number of the test antagonist compound. The second column depicts the results of the competition assays, detailing the concentration of the test compound (in micromolar quantities) which inhibits fifty percent of the binding of substance P (IC50). Certain values may represent the average of more than one experiment.

[2] = biological target: T2, human NK-2 receptor (Homo sapiens, UniProt P21452); experiment: NK-2 Receptor Binding Assay ([125I]iodohistidyl-neurokinin A, CHO-hNK-2R cell membranes); conditions: CHO-hNK-2R membranes, 20 pM [125I]iodohistidyl-neurokinin A; for pIC50: 1 hr room temperature, read-out: IC50, inhibition of binding of neurokinin A
T2 construct: expressed in transfected cells; host or cells: CHO-hNK-2R cells (CHO-derived)
T2 sequence (P21452 1-398): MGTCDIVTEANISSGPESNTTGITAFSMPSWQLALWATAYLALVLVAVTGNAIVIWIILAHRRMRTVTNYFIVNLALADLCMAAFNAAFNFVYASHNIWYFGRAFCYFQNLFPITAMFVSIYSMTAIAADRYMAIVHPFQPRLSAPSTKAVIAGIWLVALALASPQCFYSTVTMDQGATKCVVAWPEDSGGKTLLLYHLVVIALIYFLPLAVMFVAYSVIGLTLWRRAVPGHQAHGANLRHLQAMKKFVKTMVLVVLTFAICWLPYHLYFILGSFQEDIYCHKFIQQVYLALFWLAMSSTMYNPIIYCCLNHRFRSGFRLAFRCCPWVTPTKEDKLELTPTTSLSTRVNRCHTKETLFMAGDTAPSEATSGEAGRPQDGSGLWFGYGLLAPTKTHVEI
Description: as §1
NK-2 Receptor Binding Assay
The CHO-hNK-2R cells, a CHO-derived cell line transformed with the human NK-2 receptor, expressing about 400,000 such receptors per cell, were grown in 75 cm^2 flasks or roller bottles in minimal essential medium (alpha modification) with 10% fetal bovine serum. The gene sequence of the human NK-2 receptor is given in N. P. Gerard, et al., Journal of Biological Chemistry, 65:20455-20462 (1990).
For preparation of membranes, 30 confluent roller bottle cultures were dissociated by washing each roller bottle with 10 ml of Dulbecco's phosphate buffered saline (PBS) without calcium and magnesium, followed by addition of 10 ml of enzyme-free cell dissociation solution (PBS-based, from Specialty Media, Inc.). After an additional 15 minutes, the dissociated cells were pooled and centrifuged at 1,000 RPM for 10 minutes in a clinical centrifuge. Membranes were prepared by homogenization of the cell pellets in 300 ml 50 mM Tris buffer, pH 7.4 with a Tekmar® homogenizer for 10-15 seconds, followed by centrifugation at 12,000 RPM (20,000×g) for 30 minutes using a Beckman JA-14® rotor. The pellets were washed once using the above procedure. and the final pellets were resuspended in 100-120 ml 50 mM Tris buffer, pH 7.4, and 4 ml aliquots stored frozen at -70° C. The protein concentration of this preparation was 2 mg/ml.
For the receptor binding assay, one 4-ml aliquot of the CHO-hNK-2R membrane preparation was suspended in 40 ml of assay buffer containing 50 mM Tris, pH 7.4, 3 mM manganese chloride, 0.02% bovine serum albumin (BSA) and 4 μg/ml chymostatin. A 200 μl volume of the homogenate (40 μg protein) was used per sample. The radioactive ligand was [^125 I]iodohistidyl-neurokinin A (New England Nuclear, NEX-252), 2200 Ci/mmol. […] Non-specific binding was determined using 1 μM eledoisin. […]
All samples and standards were added to the incubation in 10 μl dimethylsulfoxide (DMSO) for screening (single dose) or in 5μl DMSO for IC50 determinations. […] The filter was washed 3 times with approximately 3 ml of cold 50 mM Tris buffer, pH 7.7, The filter circles were then punched into 12×75 mn polystyrene tubes and counted in a gamma counter. […]

pIC50 [1] | pIC50 [2] | inhibition at 10 µM ([2]; at 10 μM, read-out: percent inhibition of neurokinin A binding) [%] | Compound
6.74 | 4.80 | – | COc1ccccc1CN1CC(c2ccccc2)N=C1C (centres unmarked) [Example 1, 1-(2-methoxybenzyl)-2-methyl-4-phenyl-2-imidazoline]
6.92 | 6.33 | – | COc1ccccc1CN1CC(Cc2c[nH]c3ccccc23)N=C1CN1CCN(c2ccccc2)CC1 (centres unmarked) [Example 2, 1-(2-methoxybenzyl)-2-[(4-phenyl-1-piperazinyl)methyl]-4-(1H-indol-3-ylmethyl)-2-imidazoline]
6.25 | 5.04 | – | COc1ccccc1CN1CC(C)(Cc2c[nH]c3ccccc23)N=C1C (centres unmarked) [Example 3, 1-(2-methoxybenzyl)-2,4-dimethyl-4-(1H-indol-3-ylmethyl)-2-imidazoline]
6.85 | – | 21 | COc1ccccc1CN1CC(Cc2ccccc2)N=C1C (centres unmarked) [Example 4, 1-(2-methoxybenzyl)-2-methyl-4-benzyl-2-imidazoline]
